Laboratory results reported in ChEMBL document CHEMBL1158685, “Potent CYP3A4 inhibitory constituents of Piper cubeba” (J Nat Prod, 2005).

Assays:
Cytochrome P450 2D6 = Cytochrome P450 2D6 (Homo sapiens, UniProt P10635); test: Inhibition of human liver microsome CYP2D6 in assessed as [14C]formaldehyde formation; format: ADME, microsomes
Cytochrome P450 3A4 = Cytochrome P450 3A4 (Homo sapiens, UniProt P08684); test: Inhibition of human liver microsome CYP3A4 in assessed as [14C]formaldehyde formation; format: ADME, microsomes
Chain of Cytochrome P450 3A4 (P08684 whole entry): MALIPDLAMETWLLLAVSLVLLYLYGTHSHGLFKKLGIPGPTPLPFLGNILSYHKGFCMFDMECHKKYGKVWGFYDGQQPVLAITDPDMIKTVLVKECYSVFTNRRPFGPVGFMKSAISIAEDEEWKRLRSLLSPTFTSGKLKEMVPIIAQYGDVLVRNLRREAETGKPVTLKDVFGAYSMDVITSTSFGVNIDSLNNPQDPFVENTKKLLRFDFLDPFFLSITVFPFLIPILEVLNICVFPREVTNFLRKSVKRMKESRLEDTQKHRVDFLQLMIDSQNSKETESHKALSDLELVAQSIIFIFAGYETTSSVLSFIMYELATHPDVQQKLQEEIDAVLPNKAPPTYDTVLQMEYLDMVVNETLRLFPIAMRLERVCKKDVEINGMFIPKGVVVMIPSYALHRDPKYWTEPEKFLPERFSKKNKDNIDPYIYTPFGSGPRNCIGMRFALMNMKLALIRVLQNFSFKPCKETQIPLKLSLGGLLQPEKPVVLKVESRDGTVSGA

Chain of Cytochrome P450 2D6 (P10635 whole entry): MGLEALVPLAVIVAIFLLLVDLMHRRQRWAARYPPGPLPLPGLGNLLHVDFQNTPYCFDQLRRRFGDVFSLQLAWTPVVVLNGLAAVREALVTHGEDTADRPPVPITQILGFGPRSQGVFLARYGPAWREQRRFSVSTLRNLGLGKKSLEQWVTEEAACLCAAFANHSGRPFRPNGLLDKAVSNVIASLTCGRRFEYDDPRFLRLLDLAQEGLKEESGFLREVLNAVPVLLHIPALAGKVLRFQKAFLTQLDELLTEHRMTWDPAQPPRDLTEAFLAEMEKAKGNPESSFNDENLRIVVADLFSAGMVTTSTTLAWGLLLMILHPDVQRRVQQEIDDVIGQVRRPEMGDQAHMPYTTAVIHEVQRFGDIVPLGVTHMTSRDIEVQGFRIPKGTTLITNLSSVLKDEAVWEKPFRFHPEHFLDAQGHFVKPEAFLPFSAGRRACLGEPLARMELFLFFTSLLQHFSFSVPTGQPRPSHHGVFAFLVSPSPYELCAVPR

O[C@H]1OC[C@H](Cc2ccc3c(c2)OCO3)[C@H]1Cc1ccc2c(c1)OCO2
IC50 (Cytochrome P450 2D6): 35.5 µM | IC50 (Cytochrome P450 3A4): 9.1 µM

COc1cc(C[C@@H](CO)[C@H](CO)Cc2ccc3c(c2)OCO3)cc(OC)c1OC
IC50 (Cytochrome P450 2D6): > 100 µM | IC50 (Cytochrome P450 3A4): 0.8 µM

COc1cc(C[C@H]2C(=O)OC[C@@H]2Cc2ccc3c(c2)OCO3)cc(OC)c1OC
IC50 (Cytochrome P450 2D6): 95.7 µM | IC50 (Cytochrome P450 3A4): 1 µM

COc1cc(C[C@H]2COC(=O)[C@@H]2Cc2cc(OC)c(OC)c(OC)c2)cc(OC)c1OC
IC50 (Cytochrome P450 2D6): > 100 µM | IC50 (Cytochrome P450 3A4): 14.9 µM

COc1cc(C[C@H]2C(O)OC[C@@H]2Cc2ccc3c(c2)OCO3)cc(OC)c1OC (stereo not given in full)
IC50 (Cytochrome P450 2D6): > 100 µM | IC50 (Cytochrome P450 3A4): 0.83 µM

COc1cc(C[C@H]2COC(O)[C@@H]2Cc2cc(OC)c(OC)c(OC)c2)cc(OC)c1OC (stereo not given in full)
IC50 (Cytochrome P450 2D6): > 100 µM | IC50 (Cytochrome P450 3A4): 15 µM

COc1cc(OC)c(OC)cc1CC(C)=O
IC50 (Cytochrome P450 2D6): > 100 µM | IC50 (Cytochrome P450 3A4): 28.7 µM

COc1cc(C[C@H]2COC(=O)[C@@H]2Cc2cc(OC)c3c(c2)OCO3)cc(OC)c1O
IC50 (Cytochrome P450 2D6): > 100 µM

COc1cc(C[C@@H]2[C@@H](Cc3cc(OC)c4c(c3)OCO4)CO[C@@H]2O)cc(OC)c1OC
IC50 (Cytochrome P450 2D6): > 100 µM | IC50 (Cytochrome P450 3A4): 0.83 µM

CC1=C[C@@H](O)[C@@]23O[C@]2(C)C[C@@H]2OC(=O)C(C)=C2C[C@@H]13
IC50 (Cytochrome P450 2D6): > 100 µM | IC50 (Cytochrome P450 3A4): 98.2 µM

CC1=CC(=O)C2=C(C)C[C@@H]3OC(=O)C(C)=C3C[C@@H]12
IC50 (Cytochrome P450 2D6): > 100 µM | IC50 (Cytochrome P450 3A4): 8.8 µM

CO[C@@H]1OC[C@H](Cc2ccc3c(c2)OCO3)[C@H]1Cc1ccc2c(c1)OCO2
IC50 (Cytochrome P450 2D6): > 100 µM | IC50 (Cytochrome P450 3A4): 7.7 µM

OC[C@H](Cc1ccc2c(c1)OCO2)[C@H](CO)Cc1ccc2c(c1)OCO2 [DIHYDROCUBEBIN]
IC50 (Cytochrome P450 2D6): 17.5 µM | IC50 (Cytochrome P450 3A4): 9.5 µM

CCOc1cc(C[C@H]2COC(O)[C@@H]2Cc2cc(OC)c(OC)c(OC)c2)cc2c1OCO2 (stereo not given in full) [ETHOXYCLUSIN]
IC50 (Cytochrome P450 2D6): 87.9 µM | IC50 (Cytochrome P450 3A4): 0.44 µM

O=C1OC[C@H](Cc2ccc3c(c2)OCO3)[C@H]1Cc1ccc2c(c1)OCO2 [HINOKININ]
IC50 (Cytochrome P450 2D6): 26.5 µM | IC50 (Cytochrome P450 3A4): 8 µM

COc1cc(OC)c([C@@H]2[C@H](C)[C@@H](C)[C@H]2c2cc(OC)c(OC)cc2OC)cc1OC [MAGNOSALIN]
IC50 (Cytochrome P450 2D6): > 100 µM | IC50 (Cytochrome P450 3A4): 85.4 µM

COc1cc([C@H]2OC[C@@H]3C(c4cc(OC)c(O)c(OC)c4)OC[C@H]23)ccc1O (stereo not given in full) [MEDIORESINOL]
IC50 (Cytochrome P450 2D6): > 100 µM | IC50 (Cytochrome P450 3A4): 13.7 µM

C/C=C/c1cc(OC)c(OC)cc1OC [TRANS-ASARONE]
IC50 (Cytochrome P450 2D6): > 100 µM | IC50 (Cytochrome P450 3A4): 92.3 µM
